According to ChEMBL document CHEMBL4359906, “Design and synthesis of new N-terminal fatty acid modified-antimicrobial peptide analogues with potent in vitro biological activity” (Eur J Med Chem, 2019):
Converted amounts (≈) assume the structure as drawn. The source made the active and inactive calls. The rule behind the calls is not given here.

Key:
Escherichia coli [1] = assay: Antibiofilm activity against Escherichia coli ATCC 25922 assessed as reduction in biofilm inhibition at MIC after 24 hrs by crystal violet staining based assay relative to control; assay type: functional
Klebsiella pneumoniae = assay: Antibacterial activity against Klebsiella pneumoniae ATCC 700603 after 18 hrs by CLSI based broth microdilution method; assay type: functional; settings: Klebsiella pneumoniae, 700603, 18 h
DNA [2] = assay: Binding affinity to Escherichia coli ATCC 25922 genomic DNA after 30 mins by agarose gel electrophoresis; assay type: nucleic-acid assay
Escherichia coli [3] = assay: Ratio of MIC for Escherichia coli ATCC 25922 preincubated for 1 hr in presence of 10% mouse serum and measured after 18 hrs to MIC for antibacterial activity against Escherichia coli ATCC 25922 after 18 hrs; assay type: functional
Escherichia coli [4] = assay: Induction of outer membrane permeabilization in Escherichia coli ATCC 25922 measured up to 12 mins by NPN-dye based assay; assay type: organism-based
[5] = Hemolytic activity in human RBC at 256 uM measured after 1 hr by microplate reader analysis relative to control; assay type: ADME, cell-based, Erythrocyte; settings: human red blood cells (erythrocytes), read-out: Activity
Staphylococcus aureus [6] = assay: Antibacterial activity against Staphylococcus aureus ATCC 25923 after 18 hrs in presence of NaCl by CLSI based broth microdilution method (reference value: 16 microM); assay type: functional; settings: ATCC 25923, 18 h
Staphylococcus aureus [7] = assay: Antibiofilm activity against Staphylococcus aureus ATCC 25923 at 1 to 2 times of MIC after 24 hrs by crystal violet staining based assay; assay type: functional, organism-based
Escherichia coli [8] = assay: Antibacterial activity against Escherichia coli ATCC 25922 after 18 hrs in presence of KCl by CLSI based broth microdilution method (reference value: 4 microM); assay type: functional; settings: ATCC 25922, 18 h
Escherichia coli [9] = assay: Induction of inner membrane permeabilization in Escherichia coli ATCC 43837 assessed as increase in ONPG release at 4 times of MIC by ONPG dye based assay; assay type: organism-based
Staphylococcus aureus [10] = assay: Antibacterial activity against Staphylococcus aureus ATCC 25923 after 18 hrs in presence of FeCl3 by CLSI based broth microdilution method (reference value: 8 microM); assay type: functional; settings: ATCC 25923, 18 h
Staphylococcus aureus [11] = assay: Antibacterial activity against Staphylococcus aureus ATCC 25923 after 18 hrs in presence of KCl by CLSI based broth microdilution method (reference value: 8 microM); assay type: functional; settings: ATCC 25923, 18 h
Staphylococcus aureus [12] = assay: Antibiofilm activity against Staphylococcus aureus ATCC 25923 at 2 times of MIC after 24 hrs by crystal violet staining based assay; assay type: functional, organism-based
Escherichia coli [13] = assay: Antibacterial activity against Escherichia coli ATCC 25922 after 18 hrs in presence of KCl by CLSI based broth microdilution method (reference value: 16 microM); assay type: functional; settings: ATCC 25922, 18 h
Staphylococcus aureus [14] = assay: Antibacterial activity against Staphylococcus aureus ATCC 25923 after 18 hrs in presence of NaCl by CLSI based broth microdilution method (reference value: 8 microM); assay type: functional; settings: ATCC 25923, 18 h
Staphylococcus aureus [15] = assay: Antibacterial activity against Staphylococcus aureus ATCC 25923 after 18 hrs in presence of MgCl2 by CLSI based broth microdilution method (reference value: 8 microM); assay type: functional; settings: ATCC 25923, 18 h
Escherichia coli [16] = assay: Antimicrobial activity against Escherichia coli ATCC 25922 preincubated for 6 hrs in presence of 10% mouse serum and measured after 18 hrs by CLSI-based broth microdilution assay (reference value: 16 microM); assay type: functional
Escherichia coli [17] = assay: Antibiofilm activity against Escherichia coli ATCC 25922 assessed as reduction in biofilm inhibition at 0.5 to 1 times of MIC after 24 hrs by crystal violet staining based assay; assay type: functional, organism-based
Pseudomonas aeruginosa = assay: Antibiofilm activity against Pseudomonas aeruginosa ATCC 27853 at 2 times of MIC after 24 hrs by crystal violet staining based assay; assay type: functional, organism-based
Escherichia coli [18] = assay: Antibacterial activity against Escherichia coli ATCC 25922 after 18 hrs in presence of MgCl2 by CLSI based broth microdilution method (reference value: 16 microM); assay type: functional; settings: ATCC 25922, 18 h
Escherichia coli [19] = assay: Antimicrobial activity against Escherichia coli ATCC 25922 preincubated for 1 hr in presence of 10% mouse serum and measured after 18 hrs by CLSI-based broth microdilution assay (reference value: 16 microM); assay type: functional
Escherichia coli [20] = assay: Antibacterial activity against Escherichia coli ATCC 25922 after 18 hrs in presence of FeCl3 by CLSI based broth microdilution method (reference value: 16 microM); assay type: functional; settings: ATCC 25922, 18 h
Escherichia coli [21] = assay: Antibacterial activity against Escherichia coli ATCC 25922 after 18 hrs in presence of NaCl by CLSI based broth microdilution method (reference value: 16 microM); assay type: functional; settings: ATCC 25922, 18 h
Escherichia coli [22] = assay: Antibacterial activity against Escherichia coli ATCC 25922 after 18 hrs in presence of NaCl by CLSI based broth microdilution method (reference value: 8 microM); assay type: functional; settings: ATCC 25922, 18 h
Escherichia coli [23] = assay: Antimicrobial activity against Escherichia coli ATCC 25922 preincubated for 1 hr in presence of 10% mouse serum and measured after 18 hrs by CLSI-based broth microdilution assay (reference value: 8 microM); assay type: functional
Escherichia coli [24] = assay: Antibacterial activity against Escherichia coli ATCC 25922 after 18 hrs in presence of KCl by CLSI based broth microdilution method (reference value: 8 microM); assay type: functional; settings: ATCC 25922, 18 h
[25] = Cytotoxicity against mouse RAW264.7 cells assessed as cell proliferation at 4 uM after 1 hr by MTT assay relative to control; assay type: cell-based; settings: read-out: Activity
Escherichia coli [26] = assay: Antimicrobial activity against Escherichia coli ATCC 25922 preincubated for 6 hrs in presence of 10% mouse serum and measured after 18 hrs by CLSI-based broth microdilution assay (reference value: 8 microM); assay type: functional
Escherichia coli [27] = assay: Antibacterial activity against Escherichia coli ATCC 25922 after 18 hrs in presence of MgCl2 by CLSI based broth microdilution method (reference value: 8 microM); assay type: functional; settings: ATCC 25922, 18 h
Escherichia coli [28] = assay: Antibacterial activity against Escherichia coli ATCC 25922 after 18 hrs in presence of FeCl3 by CLSI based broth microdilution method (reference value: 8 microM); assay type: functional; settings: ATCC 25922, 18 h
DNA [29] = assay: Binding affinity to Escherichia coli ATCC 25922 genomic DNA at 1 x MIC after 30 mins by agarose gel electrophoresis; assay type: nucleic-acid assay
Staphylococcus aureus [30] = assay: Antibacterial activity against Staphylococcus aureus ATCC 25923 after 18 hrs in presence of FeCl3 by CLSI based broth microdilution method (reference value: 64 microM); assay type: functional; settings: ATCC 25923, 18 h
[31] = Cytotoxicity against mouse RAW264.7 cells assessed as cell proliferation at 32 uM after 1 hr by MTT assay relative to control; assay type: cell-based; settings: read-out: Activity

| SMILES | inhibition (INH) (Escherichia coli [1]) [%] | MIC (Klebsiella pneumoniae) [µM] | Activity (DNA [2]) | Ratio (Escherichia coli [3]) | Activity (Escherichia coli [4]) | hemolysis at 1 h, 256 µM [5] [%] | inhibition (Staphylococcus aureus [7]) | Activity (Escherichia coli [9]) | MIC (Staphylococcus aureus [10]) [µM] | MIC (Staphylococcus aureus [11]) [µM] | MIC (Staphylococcus aureus [14]) [µM] | MIC (Staphylococcus aureus [15]) [µM] | MIC (Escherichia coli [22]) [µM] | MIC (Escherichia coli [23]) [µM] | MIC (Escherichia coli [24]) [µM] | viability at 1 h, 4 µM [25] [%] | MIC (Escherichia coli [26]) [µM] | MIC (Escherichia coli [27]) [µM] | MIC (Escherichia coli [28]) [µM] | other results |
| --- | --- | --- | --- | --- | --- | --- | --- | --- | --- | --- | --- | --- | --- | --- | --- | --- | --- | --- | --- | --- |
| CCCCCCCC(=O)NC(Cc1cn(CCCC[C@H](NC(C)=O)C(=O)NCC(=O)N[C@@H](CC(C)C)C(=O)N[C@@H](CC(C)C)C(=O)N[C@H](CCCCN)C(=O)N[C@@H](CCCNC(=N)N)C(=O)N[C@H](C(=O)N[C@H](CCCCN)C(=O)N[C@H](C(=O)N[C@@H](CC(C)C)C(=O)N[C@@H](CC(C)C)C(N)=O)[C@@H](C)O)[C@@H](C)CC)nn1)C(=O)NCC(=O)N[C@@H](CC(C)C)C(=O)N[C@@H](CC(C)C)C(=O)N[C@H](CCCCN)C(=O)N[C@@H](CCCNC(=N)N)C(=O)N[C@H](C(=O)N[C@H](CCCCN)C(=O)N[C@H](C(=O)N[C@@H](CC(C)C)C(=O)N[C@@H](CC(C)C)C(N)=O)[C@@H](C)O)[C@@H](C)CC (stereo partly specified) | >50 | 16 (≈ 43.6 µg/mL) | Dose-dependent effect | 2 | Dose-dependent effect | < 5 | Active | Active | – | – | – | – | – | – | – | – | – | – | – | MIC (Staphylococcus aureus [6]): 32 µM; MIC (Escherichia coli [8]): 16 µM |
| CCCCCCCCCC(=O)NCC(=O)N[C@@H](CC(C)C)C(=O)N[C@@H](CC(C)C)C(=O)N[C@H](CCCCN)C(=O)N[C@@H](CCCNC(=N)N)C(=O)N[C@H](C(=O)N[C@H](CCCCN)C(=O)N[C@H](C(=O)N[C@@H](CC(C)C)C(=O)N[C@@H](CC(C)C)C(N)=O)[C@@H](C)O)[C@@H](C)CC | – | 16 (≈ 20.9 µg/mL) | Dose-dependent effect | 1 | Dose-dependent effect | – | – | Active | 8 | 8 | 8 | 8 | – | – | – | – | – | – | – | inhibition (Staphylococcus aureus [12]): Active; MIC (Escherichia coli [13]): 16 µM; MIC (Escherichia coli [16]): 16 µM; inhibition (Escherichia coli [17]): Active; inhibition (Pseudomonas aeruginosa): Active; MIC (Escherichia coli [18]): 16 µM; MIC (Escherichia coli [19]): 16 µM; MIC (Escherichia coli [20]): 8 µM; MIC (Escherichia coli [21]): 32 µM |
| CCCCCCCCCCCC(=O)NC(Cc1cn(CCCC[C@H](NC(C)=O)C(=O)NCC(=O)N[C@@H](CC(C)C)C(=O)N[C@@H](CC(C)C)C(=O)N[C@H](CCCCN)C(=O)N[C@@H](CCCNC(=N)N)C(=O)N[C@H](C(=O)N[C@H](CCCCN)C(=O)N[C@H](C(=O)N[C@@H](CC(C)C)C(=O)N[C@@H](CC(C)C)C(N)=O)[C@@H](C)O)[C@@H](C)CC)nn1)C(=O)NCC(=O)N[C@@H](CC(C)C)C(=O)N[C@@H](CC(C)C)C(=O)N[C@H](CCCCN)C(=O)N[C@@H](CCCNC(=N)N)C(=O)N[C@H](C(=O)N[C@H](CCCCN)C(=O)N[C@H](C(=O)N[C@@H](CC(C)C)C(=O)N[C@@H](CC(C)C)C(N)=O)[C@@H](C)O)[C@@H](C)CC (stereo partly specified) | >50 | 8 (≈ 22.2 µg/mL) | Dose-dependent effect | 2 | Dose-dependent effect | – | Active | Active | 16 | 16 | 8 | 8 | 16 | 16 | 16 | < 80 | 32 | 32 | 4 | Activity (DNA [29]): Dose-dependent effect |
| CCCCCCCCCC(=O)NC(Cc1cn(CCCC[C@H](NC(C)=O)C(=O)NCC(=O)N[C@@H](CC(C)C)C(=O)N[C@@H](CC(C)C)C(=O)N[C@H](CCCCN)C(=O)N[C@@H](CCCNC(=N)N)C(=O)N[C@H](C(=O)N[C@H](CCCCN)C(=O)N[C@H](C(=O)N[C@@H](CC(C)C)C(=O)N[C@@H](CC(C)C)C(N)=O)[C@@H](C)O)[C@@H](C)CC)nn1)C(=O)NCC(=O)N[C@@H](CC(C)C)C(=O)N[C@@H](CC(C)C)C(=O)N[C@H](CCCCN)C(=O)N[C@@H](CCCNC(=N)N)C(=O)N[C@H](C(=O)N[C@H](CCCCN)C(=O)N[C@H](C(=O)N[C@@H](CC(C)C)C(=O)N[C@@H](CC(C)C)C(N)=O)[C@@H](C)O)[C@@H](C)CC (stereo partly specified) | >50 | 16 (≈ 44 µg/mL) | Dose-dependent effect | 1 | Dose-dependent effect | – | Active | Active | 8 | 16 | 8 | 4 | 8 | 8 | 16 | < 80 | 16 | 16 | 4 | – |
| CCCCCC(=O)NC(Cc1cn(CCCC[C@H](NC(C)=O)C(=O)NCC(=O)N[C@@H](CC(C)C)C(=O)N[C@@H](CC(C)C)C(=O)N[C@H](CCCCN)C(=O)N[C@@H](CCCNC(=N)N)C(=O)N[C@H](C(=O)N[C@H](CCCCN)C(=O)N[C@H](C(=O)N[C@@H](CC(C)C)C(=O)N[C@@H](CC(C)C)C(N)=O)[C@@H](C)O)[C@@H](C)CC)nn1)C(=O)NCC(=O)N[C@@H](CC(C)C)C(=O)N[C@@H](CC(C)C)C(=O)N[C@H](CCCCN)C(=O)N[C@@H](CCCNC(=N)N)C(=O)N[C@H](C(=O)N[C@H](CCCCN)C(=O)N[C@H](C(=O)N[C@@H](CC(C)C)C(=O)N[C@@H](CC(C)C)C(N)=O)[C@@H](C)O)[C@@H](C)CC (stereo partly specified) | >50 | 16 (≈ 43.1 µg/mL) | Dose-dependent effect | 1 | Dose-dependent effect | < 5 | Active | Active | – | – | – | – | 32 | 8 | 16 | – | 16 | 16 | 4 | MIC (Staphylococcus aureus [30]): 32 µM; viability at 1 h, 32 µM [31]: > 80% |
